{"source": "patent US10183039B2", "about": "“Methods for the production of collagen IV” (Vanderbilt University, priority 2013, dated 2019)", "molecular_target": "T1, peroxidasin (Mus musculus, UniProt Q3UQ28)", "T1 construct": "Cultured murine PFHR9 cells synthesize collagen IV networks that contain sulfilimine crosslinks due to the activity of PXDN; endogenous in cells; host or cells: PFHR-9 cells (isolated matrix from KI-treated culture)", "T1 sequence (Q3UQ28 24-1475)": "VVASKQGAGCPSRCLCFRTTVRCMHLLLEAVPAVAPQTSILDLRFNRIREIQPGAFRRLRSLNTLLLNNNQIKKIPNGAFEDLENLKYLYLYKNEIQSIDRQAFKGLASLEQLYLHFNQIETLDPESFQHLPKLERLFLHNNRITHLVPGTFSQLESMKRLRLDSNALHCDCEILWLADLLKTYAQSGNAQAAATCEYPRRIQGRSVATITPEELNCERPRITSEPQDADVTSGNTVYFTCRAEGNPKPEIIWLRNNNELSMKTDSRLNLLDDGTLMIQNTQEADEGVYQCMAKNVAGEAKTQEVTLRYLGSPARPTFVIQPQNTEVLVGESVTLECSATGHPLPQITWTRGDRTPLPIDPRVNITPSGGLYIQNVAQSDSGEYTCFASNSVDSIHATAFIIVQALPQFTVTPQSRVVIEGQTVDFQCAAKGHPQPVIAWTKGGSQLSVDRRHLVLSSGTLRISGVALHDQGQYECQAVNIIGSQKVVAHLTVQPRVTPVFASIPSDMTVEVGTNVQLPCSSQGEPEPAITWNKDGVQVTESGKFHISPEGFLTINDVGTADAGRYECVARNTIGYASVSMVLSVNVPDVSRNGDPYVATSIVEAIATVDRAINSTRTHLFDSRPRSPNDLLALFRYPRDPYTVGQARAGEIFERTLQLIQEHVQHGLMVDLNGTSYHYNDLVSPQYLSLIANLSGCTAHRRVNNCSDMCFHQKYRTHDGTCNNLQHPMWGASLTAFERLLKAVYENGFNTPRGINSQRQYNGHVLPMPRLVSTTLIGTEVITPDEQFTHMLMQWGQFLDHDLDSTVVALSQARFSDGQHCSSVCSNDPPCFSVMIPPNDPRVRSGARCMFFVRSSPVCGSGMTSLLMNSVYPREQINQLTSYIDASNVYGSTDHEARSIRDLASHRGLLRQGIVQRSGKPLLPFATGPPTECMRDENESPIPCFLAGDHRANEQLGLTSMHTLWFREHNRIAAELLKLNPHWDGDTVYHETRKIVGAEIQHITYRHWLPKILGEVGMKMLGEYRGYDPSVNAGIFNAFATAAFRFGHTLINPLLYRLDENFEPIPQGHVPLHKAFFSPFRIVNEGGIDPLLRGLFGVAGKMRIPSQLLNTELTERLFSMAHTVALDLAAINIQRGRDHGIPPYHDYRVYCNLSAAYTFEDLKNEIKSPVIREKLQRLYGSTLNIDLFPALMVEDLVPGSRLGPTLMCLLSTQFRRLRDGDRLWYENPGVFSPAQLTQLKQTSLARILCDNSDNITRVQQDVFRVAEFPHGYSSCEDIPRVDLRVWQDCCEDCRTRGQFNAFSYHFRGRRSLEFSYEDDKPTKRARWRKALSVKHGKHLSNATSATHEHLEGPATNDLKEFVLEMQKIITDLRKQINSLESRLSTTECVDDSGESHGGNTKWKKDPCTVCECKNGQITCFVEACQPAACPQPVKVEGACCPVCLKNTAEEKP", "assay": "In vitro basement membrane (uncrosslinked PFHR-9 matrix) reaction with halides and H2O2", "assay_type": "biochemical", "method": "(FIG. 8A) Matrix pellets isolated from KI-treated PFHR9 cell culture were extensively washed into 10 mM phosphate buffer (pH 7.4) supplemented with 100 mM KF to maintain ionic strength. Potassium salts of Cl— or Br— were added in indicated amounts. 1 hr reactions at 37° C. were initiated by addition of H2O2 to 1 mM and stopped by freezing at −20° C. Coomassie blue-stained gels after collagenase digestion of the samples and SDS-PAGE (FIG. 8B) Schematic of Br-Free chloride salt purification apparatus and setup. […] Reagent KCl was commercially obtained and unaltered prior to analysis. 100 mM solutions were made with 18MΩ deionized water. (FIG. 8C) Coomassie blue stained gel of collagenase digested PFHR-9 matrix reaction assay. Reaction buffered contained 10 mM phosphate buffer (pH 7.4), 100 mM Br-Free or Commercially obtained reagent grade KCl, as well as 1 mM H2O2 and 200 μM PHG where appropriate. (FIG. 8D) SDS-PAGE and coomassie blue stain of hPXDN (27.25 nM) and NC1 domain (1.3 μM) reaction and subsequent densiometric quantitation of S═N bond formation stiochiometry in response to NaBr addition. hPXDN and PFHR-9 NC1 domain were prepared and purified as described (5), except with all buffers for all purification steps (dialysis, chromatography, gradient ultracentrifugation) made with Br-Free chloride salts. Reactions were run for 10 minutes at 37° C. with 10 μM H2O2 as the terminal oxidant. Dose-response curve run in the presence of 1× Br-Free PBS. Reactions were quenched with 0.2 mg/ml Catalase, 20 mM Methionine, and 1 mM PHG. EC50 value±95% C.I. from two independent experiments with each data point plotted and fit.\nUncrosslinked PFHR9 matrix was extensively washed into 10 mM phosphate buffer (pH 7.4) that was supplemented with 100 mM KF to maintain ionic strength. One hour reactions at 37° C. were initiated by addition of H2O2 to 1 mM and stopped by freezing at −20° C. […] Samples were digested with collagenase at 37° C. overnight and visualized by SDS-PAGE using 12% gels under non-reducing conditions with Coomassie staining.\nPFHR-9 cells treated with potassium iodide (1-10 mM) to eliminate NC1 hexamer crosslinks were used for basement membrane isolation. To test halide dependency, the inventors established halide-free conditions by washing extensively (at least five times) with 10 mM sodium phosphate pH 7.4. To try to extract or inactivate endogenous basement membrane peroxidase activity, the inventors extracted the matrix preparation twice with 2M guanidine-Cl, 50 mM Tris-Cl pH 7.5 and 10 mM EDTA-Na pH 8 followed by extensive washing with 1×PBS. Basement membrane was resuspended in the desired buffer with or without cofactors and inhibitors to examine in vitro NC1 crosslinking under various conditions. Basement membranes were collagenase solubilized to delineate collagen IV NC1 sulfilimine crosslink formation with SDS-PAGE and Coomassie blue staining membrane was isolated, washed extensively and resuspended in 1×PBS. Azide (0-10 mM) and 1 mM H2O2 were added and allowed to react for 1 h at 37° C. The matrix was pelleted, washed extensively with 1×PBS and solubilized with 1×PBS plus 2% (w/v) SDS. Solubilized proteins were reacted with 100 μM Tris[(1-benzyl-1H-1,2,3-triazol-4-yl)methyl]amine (Anaspec), 1 mM Tris(2-carboxyethyl)phosphine hydrochloride (ThermoFisher Pierce), 1 mM cupric sulfate and 100 μM biotin alkyne (PEG4 carboxamide-propargyl biotin; Life Technologies) for 1 h at 37° C. Click chemistry reactions were quenched with 1 mM 3′-azido-3′-deoxythymidine (Sigma). For avidin-HRP detection, samples were electrophoresed under reducing conditions, transferred to nitrocellulose membranes and probed with streptavidin-HRP according to manufacturer instructions (ThermoFisher Pierce). To isolate biotinylated proteins, the inventors precipitated click reaction products with two volumes of cold acetone to remove reactants, washed them with 70% (v/v) acetone and then resolubilized them in 1×PBS plus 2% SDS."}
{"compound": "Br", "note": "[bromide]", "values": [{"measurement": "crosslink formation on bromide addition to Br-free chloride", "value": "restored"}, {"measurement": "halide concentration at which crosslinked dimeric subunits formed", "value": "~100", "unit": "mM"}, {"measurement": "halide concentration permitting enzymatic crosslinking within purified matrix", "value": 10, "unit": "µM"}, {"measurement": "S═N bond formation in isolated matrix", "setting": "pH 7.4", "value": "robustly catalyzed bond formation at 10 μM"}]}
